According to the supplement of paper PMC10307832:

Legend:
Assay in all cases: relative viability (nuclei count vs DMSO), 5 days (fraction); higher = more cells survive
AZ628 + AZD7762 = compound: CC1=C(C=C(C=C1)NC(=O)C2=CC(=CC=C2)C(C)(C)C#N)NC3=CC4=C(C=C3)N=CN(C4=O)C [AZ628] + NC(=O)Nc1cc(-c2cccc(F)c2)sc1C(=O)N[C@H]1CCCNC1 [AZD7762] (partner 0.2 µM)
Method in brief: (§1)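 Nuclei were stained with Hoechst during a one-step fixation (final 0.05% Triton X-100, 1% formaldehyde, 1 ug/ml Hoechst) carried out 5 days after dosing, then counted on 4× images. The cells, lung cancer lines in 1536-well plates, had been dosed by pin tool the day after seeding with one drug alone or a fixed anchor-drug dose plus five library-drug doses (not always all listed) in √10 steps. Relative viability is the nuclei count in treated wells divided by that in vehicle wells, and each value is the median of duplicate plates.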

[1] = compound: C[As](C)SC[C@H](NC(=O)CC[C@H](N)C(=O)O)C(=O)NCC(=O)O [Darinaparsin] + N=C(N)NC(=N)NCCc1ccccc1 [Phenformin] (partner 250 µM)
Method in brief: as §1

Darinaparsin + OSI-027 = compound: C[As](C)SC[C@H](NC(=O)CC[C@H](N)C(=O)O)C(=O)NCC(=O)O [Darinaparsin] + COc1cccc2cc(-c3nc([C@H]4CC[C@H](C(=O)O)CC4)n4ncnc(N)c34)[nH]c12 [OSI-027] (partner 0.5 µM)
Method in brief: as §1

QS11 + OSI-027 = compound: C1CC2=C(C1)C=C(C=C2)OC3=NC(=C4C(=N3)N(C=N4)CC5=CC=C(C=C5)C6=CC=CC=C6)N[C@@H](CC7=CC=CC=C7)CO [QS11] + COc1cccc2cc(-c3nc([C@H]4CC[C@H](C(=O)O)CC4)n4ncnc(N)c34)[nH]c12 [OSI-027] (partner 0.5 µM)
Method in brief: as §1

Row | Cell Line | relative viability (AZ628 + AZD7762; first compound 0.08 µM) | relative viability (AZ628 + AZD7762; first compound 0.253 µM) | relative viability (AZ628 + AZD7762; first compound 0.8 µM) | relative viability (AZ628 + AZD7762; first compound 2.53 µM) | relative viability (AZ628 + AZD7762; first compound 8 µM) | relative viability ([1]; first compound 0.08 µM) | relative viability ([1]; first compound 0.8 µM) | relative viability ([1]; first compound 2.53 µM) | relative viability ([1]; first compound 8 µM) | relative viability (Darinaparsin + OSI-027; first compound 0.08 µM) | relative viability (Darinaparsin + OSI-027; first compound 0.8 µM) | relative viability (Darinaparsin + OSI-027; first compound 2.53 µM) | relative viability (Darinaparsin + OSI-027; first compound 8 µM) | relative viability (QS11 + OSI-027; first compound 0.08 µM) | relative viability (QS11 + OSI-027; first compound 0.253 µM) | relative viability (QS11 + OSI-027; first compound 0.8 µM) | relative viability (QS11 + OSI-027; first compound 2.53 µM) | relative viability (QS11 + OSI-027; first compound 8 µM)
1 | NCI-H322M | 0.529 | 0.526 | 0.455 | 0.467 | 0.524 | 0.886 | 0.795 | 0.663 | 0.795 | 0.611 | 0.531 | 0.545 | 0.573 | 0.549 | 0.607 | 0.636 | 0.687 | 0.732
2 | NCI-H838 | 0.957 | 0.884 | 0.915 | 0.95 | 0.922 | 0.596 | 0.508 | 0.486 | 0.638 | 0.401 | 0.34 | 0.458 | 0.428 | 0.339 | 0.366 | 0.362 | 0.378 | 0.359
3 | NCI-H596 | 1.11 | 1.08 | 1.02 | 1.17 | 0.915 | 0.891 | 0.737 | 0.677 | 0.745 | 0.766 | 0.845 | 0.647 | 0.762 | 0.715 | 0.688 | 0.679 | 0.66 | 0.732
4 | NCI-H647 | 0.485 | 0.417 | 0.456 | 0.488 | 0.397 | 0.62 | 0.479 | 0.474 | 0.696 | 0.625 | 0.59 | 0.545 | 1.08 | 0.585 | 0.64 | 0.596 | 0.642 | 0.732
5 | NCI-H441 | 1.41 | 0.841 | 0.911 | 1.1 | 0.655 | 1.13 | 0.821 | 0.597 | 0.88 | 0.79 | 0.719 | 0.555 | 0.613 | 0.614 | 0.619 | 0.76 | 0.566 | 0.548
